Assay results as given in paper PMC11050816, “Pharmacokinetics and Safety of Lurbinectedin Administrated with Itraconazole in Cancer Patients: A Drug–Drug Interaction Study” (Marine Drugs, 2024).
Where two headings read alike, the source gives them in different places.

How the values were obtained:
[1] = cited from earlier work
[2] = Total plasma lurbinectedin pharmacokinetics with and without itraconazole (phase Ib drug-drug interaction study); type: in vivo, human
From the text: (§1) The study consisted of two parts.

[3] = cited from earlier work; remark: listed apart in the source
[4] = parameters: method as in PMID 24563480; details: 1.3 mg/m^2 over 1 h without CYP3A4 inhibitors; cited from earlier work
[5] = Unbound plasma lurbinectedin pharmacokinetics with and without itraconazole (phase Ib drug-drug interaction study); type: in vivo, human
From the text: as §1

cytochrome P450 (CYP) 3A = details: based on in vitro studies; cited from earlier work
[6] = Safety assessment: adverse events and laboratory abnormalities graded by NCI-CTCAE v. 5.0; type: in vivo, human
From the text: Safety analyses included all 14 patients who received at least one dose of lurbinectedin (Part A, n = 3; Part B, n = 11). Thirteen of the fourteen treated patients (three in Part A and ten in Part B) received itraconazole plus lurbinectedin in Cycles 1 or 2, and all fourteen treated patients (three in Part A and 11 in Part B) received lurbinectedin alone in Cycles 1, 2, or 3.
as §1
Safety evaluations included assessments of AEs, clinical laboratory tests, deaths, vital signs measurements, and physical examinations. TEAEs were defined as any AE that worsened in severity from baseline or having their onset between the first dose of the study drug and 31 days (±10 days) after the last dose, death, or date of further therapy. AEs were coded based on the Medical Dictionary for Regulatory Activities (MedDRA) v. 23.0 and graded as per the National Cancer Institute–Common Terminology Criteria for Adverse Events (NCI-CTCAE) v. 5.0.

[7] = co-administration with itraconazole compared to lurbinectedin alone
[8] = co-administration with itraconazole compared to lurbinectedin alone, listed as LRB
[9] = co-administration with multiple oral doses of itraconazole
[10] = total plasma lurbinectedin, n = 8 patients per treatment
[11] = unbound plasma lurbinectedin, Test n = 5, Reference n = 8
[12] = Part A (LRB 0.8 mg/m^2 with ITZ, 3.2 mg/m^2 alone), all grades
[13] = Part A (LRB 0.8 mg/m^2 with ITZ, 3.2 mg/m^2 alone), grade 3
[14] = Part A (LRB 0.8 mg/m^2 with ITZ, 3.2 mg/m^2 alone), grade 4

Q: For `COc1ccc2[nH]c3c(c2c1)CCN[C@]31CS[C@@H]2c3c(OC(C)=O)c(C)c4c(c3[C@H](COC1=O)N1[C@@H]2[C@H]2c3c(cc(C)c(OC)c3O)C[C@@H]([C@@H]1O)N2C)OCO4` [lurbinectedin], which “Population estimate for total plasma CL” value ([1]; 1 h IV infusion, single agent or combined) is on record?
A: The value was 11.2 L/h.

Q: And the Extraction ratio [1]?
A: Its Extraction ratio is 0.19.

Q: What about the “Population estimate of apparent volume at steady state” value [1] of the same compound?
A: The value was 438 L.

Q: What about the “Reduction of CL” value ([1]; co-administration of cytochrome CYP3A inhibitors) of the same compound?
A: Its value is 30%.

Q: And the “Decrease of mean plasma CL” value ([1]; concomitant administration of aprepitant (a moderate CYP3A4 inhibitor))?
A: Its value is 30%.

Q: And the “Blood CL” value ([1]; corresponding to total plasma CL 11.2 L/h)?
A: The value was ~ 17 L/h.

Q: And the “Reduction of CL” value ([1]; high C-reactive protein)?
A: The value was 20%.

Q: What about the “Reduction of CL” value ([1]; high α-1-acid glycoprotein) of the same compound?
A: The value was 28%.

Q: What about the “Reduction of CL” value ([1]; low albumin) of the same compound?
A: Its value is 20%.

Q: What about the “Increase of total plasma AUC0–t” value [2, 7] of the same compound?
A: The value was “approximately 2.4 fold”.

Q: What about the “Increase of total plasma AUC0–∞” value [2, 7] of the same compound?
A: The value was “approximately 2.7 fold”.

Q: What about the “Increase of total plasma Cmax” value [2, 7] of the same compound?
A: Its value is 15%.

Q: What about the “Increase of total plasma AUC0–t” value [2, 8] of the same compound?
A: The value was 2.4 fold.

Q: What about the “Increase of total plasma AUC0–∞” value [2, 8] of the same compound?
A: The value was 2.7 fold.

Q: And the “Prolongation of terminal half-life (t1/2), total plasma” value [2, 9]?
A: The value was 2.2 fold.

Q: And the “Reduction of total plasma CL” value [2, 9]?
A: Its value is 63%.

Q: And the clearance ([2]; human, intravenous, 3.2 mg/m^2, total plasma lurbinectedin, n = 8 patients per treatment, read-out: CL, geometric mean (CV%) (converted))?
A: The clearance was 158 mL/min.

Q: What about the Vd ([2]; human, intravenous, 3.2 mg/m^2, total plasma lurbinectedin, n = 8 patients per treatment, read-out: Vss, geometric mean (CV%)) of the same compound?
A: Its Vd is 419 L.

Q: And the half-life ([2]; human, intravenous, 3.2 mg/m^2, total plasma lurbinectedin, n = 8 patients per treatment, read-out: t1/2, geometric mean (CV%) (converted))?
A: The half-life was 46.6 h.

Q: What about the “AUC0–t, dose-normalized, geometric mean (CV%)” value [2, 10] of the same compound?
A: The value was 103.4 (78.85) µg·h/L/mg.

Q: What about the “AUC0–∞, dose-normalized, geometric mean (CV%)” value [2, 10] of the same compound?
A: The value was 105.8 (77.37) µg·h/L/mg.

Q: And the “Cmax, dose-normalized, geometric mean (CV%)” value [2, 10]?
A: Its value is 22.43 (53.75) µg/L/mg.

Q: And the Protein binding [3]?
A: Its Protein binding is “highly protein-bound”.

Q: What about the “Time after starting the infusion for which plasma concentrations were measurable” value [4] of the same compound?
A: Its value is “at least 160 h”.

Q: And the “Decrease of unbound CL” value [5, 7]?
A: The value was 58%.

Q: And the “Increase of unbound AUC0–∞” value [5, 7]?
A: Its value is 2.4 fold.

Q: And the “Unbound t1/2 longer” value [5, 7]?
A: Its value is 2 fold.

Q: What about the Vd ([5]; human, intravenous, 3.2 mg/m^2, unbound plasma lurbinectedin, Test n = 5, Reference n = 8, read-out: Unbound Vss, geometric mean (CV%)) of the same compound?
A: Its Vd is 235000 L.

Q: What about the half-life ([5]; human, intravenous, 3.2 mg/m^2, unbound plasma lurbinectedin, Test n = 5, Reference n = 8, read-out: Unbound t1/2, geometric mean (CV%) (converted)) of the same compound?
A: Its half-life is 46.6 h.

Q: And the “Unbound AUC0–t, dose-normalized, geometric mean (CV%)” value [5, 11]?
A: The value was 184.55 (57.58) pg·h/mL/mg.

Q: And the “Unbound AUC0–∞, dose-normalized, geometric mean (CV%)” value [5, 11]?
A: The value was 188.84 (56.92) pg·h/mL/mg.

Q: What about the “Unbound CL, geometric mean (CV%)” value [5, 11] of the same compound?
A: The value was 5295.44 (56.92) L/h.

Q: And the “Unbound Cmax, dose-normalized, geometric mean (CV%)” value [5, 11]?
A: The value was 40.03 (21.75) pg/mL/mg.

Q: What about the “Major clearance (CL) mechanism” value (cytochrome P450 (CYP) 3A) of the same compound?
A: Its value is “metabolism of lurbinectedin by cytochrome P450 (CYP) 3A”.

Q: And the Tolerability ([6]; 0.9 mg/m^2 1 h IV infusion Day 1 q3wk with itraconazole)?
A: The Tolerability was “well tolerated”.

Q: What about the “ALT increased (biochemical laboratory abnormality, regardless of relationship)” value [6, 12] of the same compound?
A: Its value is 1 (33) n (%) of patients.

Q: And the “Anemia (hematological laboratory abnormality, regardless of relationship)” value [6, 12]?
A: Its value is 3 (100) n (%) of patients.

Q: And the “Constipation (treatment-related AE)” value [6, 12]?
A: The value was 1 (33) n (%) of patients.

Q: And the “GGT increased (biochemical laboratory abnormality, regardless of relationship)” value [6, 12]?
A: The value was 1 (33) n (%) of patients.

Q: What about the “Leukopenia (hematological laboratory abnormality, regardless of relationship)” value [6, 12] of the same compound?
A: Its value is 3 (100) n (%) of patients.

Q: And the “Lymphopenia (hematological laboratory abnormality, regardless of relationship)” value [6, 12]?
A: Its value is 3 (100) n (%) of patients.

Q: What about the “Neutropenia (hematological laboratory abnormality, regardless of relationship)” value [6, 12] of the same compound?
A: Its value is 2 (67) n (%) of patients.

Q: And the “Thrombocytopenia (hematological laboratory abnormality, regardless of relationship)” value [6, 12]?
A: The value was 2 (67) n (%) of patients.

Q: And the “Vomiting (treatment-related AE)” value [6, 12]?
A: The value was 1 (33) n (%) of patients.

Q: What about the “ALT increased (biochemical laboratory abnormality, regardless of relationship)” value [6, 13] of the same compound?
A: The value was 1 (33) n (%) of patients.

Q: What about the “Leukopenia (hematological laboratory abnormality, regardless of relationship)” value [6, 13] of the same compound?
A: Its value is 1 (33) n (%) of patients.

Q: And the “Lymphopenia (hematological laboratory abnormality, regardless of relationship)” value [6, 13]?
A: Its value is 1 (33) n (%) of patients.

Q: What about the “Leukopenia (hematological laboratory abnormality, regardless of relationship)” value [6, 14] of the same compound?
A: Its value is 1 (33) n (%) of patients.

Q: And the “Neutropenia (hematological laboratory abnormality, regardless of relationship)” value [6, 14]?
A: Its value is 2 (67) n (%) of patients.

Q: And the “Bone pain (treatment-emergent AE, regardless of relationship)” value ([6]; Part A, all grades)?
A: The value was 1 (33) n (%) of patients.
